Measurements from patent US9174994B2, “Enhanced treatment regimens using mTor inhibitors” (INTELLIKINE LLC, priority 2011, dated 2015).

Experiments:
advanced solid tumors = experiment: Phase I clinical trial: preliminary antitumor activity; format: in vivo, human; conditions: patients with lung and renal cancer
Procedure: Adult patients with histologically confirmed advanced solid tumors were enrolled in a 3+3 dose escalation Phase I study evaluating 3 intermittent schedules of administration for compound A: QW (once weekly), QD×3d QW (3 days on 4 days off), and QD×5d QW (5 days on 2 days off), in comparison with daily dosing (QD). Safety, maximum tolerated dose (MTD), pharmacokinetics (PK) and preliminary antitumor activity were evaluated.

p4E-BP1 (T37/46) = experiment: Human peripheral blood mono-nucleocyte biomarker assay (Phosflow, Phase I trial); format: in vivo; conditions: all dosing regimens
Procedure: A BD Biosciences Phosflow assay was conducted using human peripheral blood cells. Whole blood was lysed and fixed using the provided BD Lyse/Fix buffer and permeabilized with BD Perm III buffer. Peripheral blood cells were isolated and stained using CD33 and CD20 as extracellular markers and p4E-BP1 (T37/46) as the intracellular biomarker. Cell type populations were identified as monocytes (CD33+), granulocytes (CD33 dim), lymphocytes (CD33−), B-cells (CD33−, CD20+) and T &NK cells (CD33−, CD20−) by FACS analysis. The median fluorescense intensity (MFI) of each cell type was analyzed along with the percentage of p4E-BP1 positive cells.
Pharmacodynamic (PD) endpoints were evaluated in surrogate (peripheral blood cells [PBCs], skin) and tumor tissues for the phosphorylation of TORC1-dependent markers (4EBP1/S6), and TORC2-dependent markers (AKT/PRAS40). 50 patients were treated in 3 intermittent dosing regimens; 21 in 6 cohorts ranging 7-40 mg QW, 20 in 5 cohorts ranging 6-20 mg QDx3d QW, and 9 in 3 cohorts ranging 7-13 mg QDxSd QW. […] The MTD for intermittent dosing was not reached. All adverse events (AEs) reported were reversible. The most common (≧20%, n=35) AEs considered possibly related to compound A reported in all 3 dosing regimens included nausea (51%), hyperglycemia (37%), mucosal inflammation (29%), rash (23%), asthenia (23%), vomiting (26%), and diarrhea (20%). […]

[1] = Additional study: grade 3 or greater treatment-emergent adverse events; format: in vivo, human

SMILES: CC(C)n1nc(-c2ccc3oc(N)nc3c2)c2c(N)ncnc21 [compound A]
- Preliminary anti-tumor activity (advanced solid tumors): Preliminary anti-tumor activity was seen
- p4EBP1 levels in PBC (p4E-BP1 (T37/46)): Decreases in p4EBP1 levels were seen
- Grade 3 or greater TEAE: Anaemia ([1]; QD Dosing (N = 29)): 1 (3%)
- Grade 3 or greater TEAE: Aspartate aminotransferase increase ([1]; QD Dosing (N = 29)): 0 (0%)
- Grade 3 or greater TEAE: Asthenia ([1]; QD Dosing (N = 29)): 1 (3%)
- Grade 3 or greater TEAE: Blood creatinine increase ([1]; QD Dosing (N = 29)): 0 (0%)
- Grade 3 or greater TEAE: Deep vein thrombosis ([1]; QD Dosing (N = 29)): 0 (0%)
- Grade 3 or greater TEAE: Diarrhoea ([1]; QD Dosing (N = 29)): 1 (3%)
- Grade 3 or greater TEAE: Disease progression ([1]; QD Dosing (N = 29)): 0 (0%)
- Grade 3 or greater TEAE: Fatigue ([1]; QD Dosing (N = 29)): 0 (0%)
- Grade 3 or greater TEAE: Gamma-glutamyltransferase increase ([1]; QD Dosing (N = 29)): 0 (0%)
- Grade 3 or greater TEAE: Hyperglycaemia ([1]; QD Dosing (N = 29)): 4 (14%)
- Grade 3 or greater TEAE: Hypokalaemia ([1]; QD Dosing (N = 29)): 2 (7%)
- Grade 3 or greater TEAE: Hyponatraemia ([1]; QD Dosing (N = 29)): 2 (7%)
- Grade 3 or greater TEAE: Hypophsphataemia ([1]; QD Dosing (N = 29)): 0 (0%)
- Grade 3 or greater TEAE: Lymphopenia ([1]; QD Dosing (N = 29)): 2 (7%)
- Grade 3 or greater TEAE: Mucosal Inflammation ([1]; QD Dosing (N = 29)): 0 (0%)
- Grade 3 or greater TEAE: Muscular weakness ([1]; QD Dosing (N = 29)): 0 (0%)
- Grade 3 or greater TEAE: Nausea ([1]; QD Dosing (N = 29)): 0 (0%)
- Grade 3 or greater TEAE: Neutropenia ([1]; QD Dosing (N = 29)): 0 (0%)
- Grade 3 or greater TEAE: Pruritus ([1]; QD Dosing (N = 29)): 2 (7%)
- Grade 3 or greater TEAE: Rash ([1]; QD Dosing (N = 29)): 7 (24%)
- Grade 3 or greater TEAE: Thrombocytopenia ([1]; QD Dosing (N = 29)): 2 (7%)
- Grade 3 or greater TEAE: Vomiting ([1]; QD Dosing (N = 29)): 0 (0%)
- Patients Reporting at least one Grade 3 or greater TEAE ([1]; QD Dosing (N = 29)): 17 (59%)
- Grade 3 or greater TEAE: Anaemia ([1]; QDx3d QW (N = 25)): 2 (8%)
- Grade 3 or greater TEAE: Aspartate aminotransferase increase ([1]; QDx3d QW (N = 25)): 0 (0%)
- Grade 3 or greater TEAE: Asthenia ([1]; QDx3d QW (N = 25)): 1 (4%)
- Grade 3 or greater TEAE: Blood creatinine increase ([1]; QDx3d QW (N = 25)): 2 (8%)
- Grade 3 or greater TEAE: Deep vein thrombosis ([1]; QDx3d QW (N = 25)): 1 (4%)
- Grade 3 or greater TEAE: Diarrhoea ([1]; QDx3d QW (N = 25)): 1 (4%)
- Grade 3 or greater TEAE: Disease progression ([1]; QDx3d QW (N = 25)): 0 (0%)
- Grade 3 or greater TEAE: Fatigue ([1]; QDx3d QW (N = 25)): 0 (0%)
- Grade 3 or greater TEAE: Gamma-glutamyltransferase increase ([1]; QDx3d QW (N = 25)): 1 (4%)
- Grade 3 or greater TEAE: Hyperglycaemia ([1]; QDx3d QW (N = 25)): 4 (16%)
- Grade 3 or greater TEAE: Hypokalaemia ([1]; QDx3d QW (N = 25)): 0 (0%)
- Grade 3 or greater TEAE: Hyponatraemia ([1]; QDx3d QW (N = 25)): 0 (0%)
- Grade 3 or greater TEAE: Hypophsphataemia ([1]; QDx3d QW (N = 25)): 3 (12%)
- Grade 3 or greater TEAE: Lymphopenia ([1]; QDx3d QW (N = 25)): 2 (8%)
- Grade 3 or greater TEAE: Mucosal Inflammation ([1]; QDx3d QW (N = 25)): 4 (16%)
- Grade 3 or greater TEAE: Muscular weakness ([1]; QDx3d QW (N = 25)): 1 (4%)
- Grade 3 or greater TEAE: Nausea ([1]; QDx3d QW (N = 25)): 1 (4%)
- Grade 3 or greater TEAE: Neutropenia ([1]; QDx3d QW (N = 25)): 0 (0%)
- Grade 3 or greater TEAE: Pruritus ([1]; QDx3d QW (N = 25)): 1 (4%)
- Grade 3 or greater TEAE: Rash ([1]; QDx3d QW (N = 25)): 1 (4%)
- Grade 3 or greater TEAE: Thrombocytopenia ([1]; QDx3d QW (N = 25)): 0 (0%)
- Grade 3 or greater TEAE: Vomiting ([1]; QDx3d QW (N = 25)): 1 (4%)
- Patients Reporting at least one Grade 3 or greater TEAE ([1]; QDx3d QW (N = 25)): 18 (72%)
- Grade 3 or greater TEAE: Anaemia ([1]; QDx5d QW (N = 15)): 1 (7%)
- Grade 3 or greater TEAE: Aspartate aminotransferase increase ([1]; QDx5d QW (N = 15)): 1 (7%)
- Grade 3 or greater TEAE: Asthenia ([1]; QDx5d QW (N = 15)): 1 (7%)
- Grade 3 or greater TEAE: Blood creatinine increase ([1]; QDx5d QW (N = 15)): 0 (0%)
- Grade 3 or greater TEAE: Deep vein thrombosis ([1]; QDx5d QW (N = 15)): 0 (0%)
- Grade 3 or greater TEAE: Diarrhoea ([1]; QDx5d QW (N = 15)): 0 (0%)
- Grade 3 or greater TEAE: Disease progression ([1]; QDx5d QW (N = 15)): 0 (0%)
- Grade 3 or greater TEAE: Fatigue ([1]; QDx5d QW (N = 15)): 2 (13%)
- Grade 3 or greater TEAE: Gamma-glutamyltransferase increase ([1]; QDx5d QW (N = 15)): 1 (7%)
- Grade 3 or greater TEAE: Hyperglycaemia ([1]; QDx5d QW (N = 15)): 1 (7%)
- Grade 3 or greater TEAE: Hypokalaemia ([1]; QDx5d QW (N = 15)): 0 (0%)
- Grade 3 or greater TEAE: Hyponatraemia ([1]; QDx5d QW (N = 15)): 0 (0%)
- Grade 3 or greater TEAE: Hypophsphataemia ([1]; QDx5d QW (N = 15)): 2 (13%)
- Grade 3 or greater TEAE: Lymphopenia ([1]; QDx5d QW (N = 15)): 1 (7%)
- Grade 3 or greater TEAE: Mucosal Inflammation ([1]; QDx5d QW (N = 15)): 3 (20%)
- Grade 3 or greater TEAE: Muscular weakness ([1]; QDx5d QW (N = 15)): 0 (0%)
- Grade 3 or greater TEAE: Nausea ([1]; QDx5d QW (N = 15)): 1 (7%)
- Grade 3 or greater TEAE: Neutropenia ([1]; QDx5d QW (N = 15)): 1 (7%)
- Grade 3 or greater TEAE: Pruritus ([1]; QDx5d QW (N = 15)): 0 (0%)
- Grade 3 or greater TEAE: Rash ([1]; QDx5d QW (N = 15)): 1 (7%)
- Grade 3 or greater TEAE: Thrombocytopenia ([1]; QDx5d QW (N = 15)): 0 (0%)
- Grade 3 or greater TEAE: Vomiting ([1]; QDx5d QW (N = 15)): 1 (7%)
- Patients Reporting at least one Grade 3 or greater TEAE ([1]; QDx5d QW (N = 15)): 8 (53%)
- Grade 3 or greater TEAE: Anaemia ([1]; QW Dosing (N = 22)): 2 (9%)
- Grade 3 or greater TEAE: Aspartate aminotransferase increase ([1]; QW Dosing (N = 22)): 1 (5%)
- Grade 3 or greater TEAE: Asthenia ([1]; QW Dosing (N = 22)): 1 (5%)
- Grade 3 or greater TEAE: Blood creatinine increase ([1]; QW Dosing (N = 22)): 0 (0%)
- Grade 3 or greater TEAE: Deep vein thrombosis ([1]; QW Dosing (N = 22)): 1 (5%)
- Grade 3 or greater TEAE: Diarrhoea ([1]; QW Dosing (N = 22)): 1 (5%)
- Grade 3 or greater TEAE: Disease progression ([1]; QW Dosing (N = 22)): 2 (9%)
- Grade 3 or greater TEAE: Fatigue ([1]; QW Dosing (N = 22)): 1 (5%)
- Grade 3 or greater TEAE: Gamma-glutamyltransferase increase ([1]; QW Dosing (N = 22)): 1 (5%)
- Grade 3 or greater TEAE: Hyperglycaemia ([1]; QW Dosing (N = 22)): 0 (0%)
- Grade 3 or greater TEAE: Hypokalaemia ([1]; QW Dosing (N = 22)): 1 (5%)
- Grade 3 or greater TEAE: Hyponatraemia ([1]; QW Dosing (N = 22)): 0 (0%)
- Grade 3 or greater TEAE: Hypophsphataemia ([1]; QW Dosing (N = 22)): 0 (0%)
- Grade 3 or greater TEAE: Lymphopenia ([1]; QW Dosing (N = 22)): 1 (5%)
- Grade 3 or greater TEAE: Mucosal Inflammation ([1]; QW Dosing (N = 22)): 0 (0%)
- Grade 3 or greater TEAE: Muscular weakness ([1]; QW Dosing (N = 22)): 1 (5%)
- Grade 3 or greater TEAE: Nausea ([1]; QW Dosing (N = 22)): 0 (0%)
- Grade 3 or greater TEAE: Neutropenia ([1]; QW Dosing (N = 22)): 1 (5%)
- Grade 3 or greater TEAE: Pruritus ([1]; QW Dosing (N = 22)): 0 (0%)
- Grade 3 or greater TEAE: Rash ([1]; QW Dosing (N = 22)): 0 (0%)
- Grade 3 or greater TEAE: Thrombocytopenia ([1]; QW Dosing (N = 22)): 0 (0%)
- Grade 3 or greater TEAE: Vomiting ([1]; QW Dosing (N = 22)): 1 (5%)
- Patients Reporting at least one Grade 3 or greater TEAE ([1]; QW Dosing (N = 22)): 10 (45%)
- Grade 3 or greater TEAE: Anaemia ([1]; Total (N = 91)): 6 (7%)
- Grade 3 or greater TEAE: Aspartate aminotransferase increase ([1]; Total (N = 91)): 2 (2%)
- Grade 3 or greater TEAE: Asthenia ([1]; Total (N = 91)): 4 (4%)
- Grade 3 or greater TEAE: Blood creatinine increase ([1]; Total (N = 91)): 2 (2%)
- Grade 3 or greater TEAE: Deep vein thrombosis ([1]; Total (N = 91)): 2 (2%)
- Grade 3 or greater TEAE: Diarrhoea ([1]; Total (N = 91)): 3 (3%)
- Grade 3 or greater TEAE: Disease progression ([1]; Total (N = 91)): 2 (2%)
- Grade 3 or greater TEAE: Fatigue ([1]; Total (N = 91)): 3 (3%)
- Grade 3 or greater TEAE: Gamma-glutamyltransferase increase ([1]; Total (N = 91)): 3 (3%)
- Grade 3 or greater TEAE: Hyperglycaemia ([1]; Total (N = 91)): 9 (10%)
- Grade 3 or greater TEAE: Hypokalaemia ([1]; Total (N = 91)): 3 (3%)
- Grade 3 or greater TEAE: Hyponatraemia ([1]; Total (N = 91)): 2 (2%)
- Grade 3 or greater TEAE: Hypophsphataemia ([1]; Total (N = 91)): 5 (5%)
- Grade 3 or greater TEAE: Lymphopenia ([1]; Total (N = 91)): 6 (7%)
- Grade 3 or greater TEAE: Mucosal Inflammation ([1]; Total (N = 91)): 7 (8%)
- Grade 3 or greater TEAE: Muscular weakness ([1]; Total (N = 91)): 2 (2%)
- Grade 3 or greater TEAE: Nausea ([1]; Total (N = 91)): 2 (2%)
- Grade 3 or greater TEAE: Neutropenia ([1]; Total (N = 91)): 2 (2%)
- Grade 3 or greater TEAE: Pruritus ([1]; Total (N = 91)): 3 (3%)
- Grade 3 or greater TEAE: Rash ([1]; Total (N = 91)): 9 (10%)
- Grade 3 or greater TEAE: Thrombocytopenia ([1]; Total (N = 91)): 2 (2%)
- Grade 3 or greater TEAE: Vomiting ([1]; Total (N = 91)): 3 (3%)
- Patients Reporting at least one Grade 3 or greater TEAE ([1]; Total (N = 91)): 53 (58%)
